Test results published in US5658924A, “1,8-naphthyridin-2-one derivative and use thereof” (The Green Cross Corporation, priority 1995, dated 1997).

Assays:
[1] = system: PDE isozyme I; experiment: Inhibition of PDE (isozyme I); format: biochemical; conditions: pig ventricular muscle, [3H]-cAMP substrate; read-out: PDE Inhibitory activity (IC5 :μM), PDE isozyme I
Procedure: (§1) Inhibition of PDE by 1,8-naphthyridin-2-one derivative
(§2) The centrifugation supernatant of the homogenate of pig ventricular muscle was separated into isozyme by ortho-(diethylaminoethyl)-cellulose chromatography and used as an enzyme source. Respective isozymes were confirmed by the reaction with respective activity regulators. [^3 H]-cAMP was used as a substrate and the reaction was carried out in the presence of 5'-nucleotidase. A sample was dissolved in dimethyl sulfoxide and added to the reaction mixture. [^3 H]-5'-AMP produced by PDE was decomposed into [^3 H]-adenosine by 5'-nucleotidase. An anion exchange resin was added to adsorb the unreacted [^3 H]-cAMP, whereby the reaction was stopped. The [^3 H]-adenosine radioactivity of the supernatant was determined, based on which the PDE inhibitory action was calculated.

[2] = system: histamine-induced contraction of bronchial specimen; experiment: Suppression of histamine-induced contraction of bronchial specimen extracted from guinea pig; parameters: species or system guinea pig (male Hartley); conditions: histamine 3 μM
Procedure: (§3) Suppression of histamine or leukotriene D4 -induced contraction of bronchial specimen extracted from guinea pig
(§4) Male Hartley guinea pigs weighing 250-450 g were fainted by hitting in the head and exsanguinated to death. The trachea was removed and ring specimens were prepared by a conventional method. The specimens were kept at 37° C. and suspended in a Krebs-Ringer solution (10 ml) aerated with a 95% O2 -5% CO2 mixed gas, and isometric tension was measured. The specimens were contracted with histamine (3 μM) or leukotriene D4 (1 nM). When the reaction became stable, a drug dissolved in dimethyl sulfoxide was added to the Kreb's Ringer solution. The relaxation ratio was calculated based on the base line before the contraction, which was taken as 100% relaxation.

[3] = system: leukotriene D4-induced contraction of bronchial specimen; experiment: Suppression of leukotriene D4-induced contraction of bronchial specimen extracted from guinea pig; parameters: species or system guinea pig (male Hartley); conditions: leukotriene D4 1 nM
Procedure: as §3, §4

[4] = target: T1, PDE isozyme III (Sus scrofa, UniProt I3L6S5); experiment: Inhibition of PDE (isozyme III); format: biochemical; conditions: pig ventricular muscle, [3H]-cAMP substrate; read-out: PDE Inhibitory activity (IC5 :μM), PDE isozyme III
T1 construct: centrifugation supernatant of the homogenate of pig ventricular muscle; from tissue; host or cells: pig ventricular muscle, supernatant of homogenate, DEAE-cellulose fraction
T1 sequence (I3L6S5 1-1145): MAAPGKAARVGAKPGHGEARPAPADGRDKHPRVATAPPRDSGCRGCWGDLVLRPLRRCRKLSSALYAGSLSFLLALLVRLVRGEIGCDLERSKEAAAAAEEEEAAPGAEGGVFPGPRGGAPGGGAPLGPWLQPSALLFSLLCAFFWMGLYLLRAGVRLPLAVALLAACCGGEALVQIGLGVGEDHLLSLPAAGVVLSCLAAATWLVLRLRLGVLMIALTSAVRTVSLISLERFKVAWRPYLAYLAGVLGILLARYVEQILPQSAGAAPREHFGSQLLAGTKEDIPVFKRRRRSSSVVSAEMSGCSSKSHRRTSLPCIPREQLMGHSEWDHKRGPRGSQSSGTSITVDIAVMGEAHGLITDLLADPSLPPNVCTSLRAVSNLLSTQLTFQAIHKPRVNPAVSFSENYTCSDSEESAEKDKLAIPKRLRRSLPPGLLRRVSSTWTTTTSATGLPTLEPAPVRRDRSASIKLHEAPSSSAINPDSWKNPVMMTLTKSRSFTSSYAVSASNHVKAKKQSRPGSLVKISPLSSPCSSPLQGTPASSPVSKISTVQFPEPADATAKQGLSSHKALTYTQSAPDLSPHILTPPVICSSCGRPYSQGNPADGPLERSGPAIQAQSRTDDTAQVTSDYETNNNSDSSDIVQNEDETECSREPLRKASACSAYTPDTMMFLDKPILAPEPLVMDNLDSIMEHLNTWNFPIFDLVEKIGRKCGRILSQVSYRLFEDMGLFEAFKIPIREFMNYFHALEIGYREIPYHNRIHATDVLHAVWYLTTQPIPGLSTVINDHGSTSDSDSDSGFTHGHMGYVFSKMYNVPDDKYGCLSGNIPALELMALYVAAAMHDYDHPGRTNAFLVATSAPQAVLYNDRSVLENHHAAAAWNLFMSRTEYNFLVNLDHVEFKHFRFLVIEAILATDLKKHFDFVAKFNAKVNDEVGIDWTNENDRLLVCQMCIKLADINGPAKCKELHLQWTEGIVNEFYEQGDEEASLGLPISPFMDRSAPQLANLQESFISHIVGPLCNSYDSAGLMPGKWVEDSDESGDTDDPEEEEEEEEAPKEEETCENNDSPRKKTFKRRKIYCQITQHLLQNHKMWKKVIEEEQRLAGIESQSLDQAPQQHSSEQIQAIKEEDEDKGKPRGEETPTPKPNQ
Procedure: as §1, §2

[5] = system: PDE isozyme IV; experiment: Inhibition of PDE (isozyme IV); format: biochemical; conditions: pig ventricular muscle, [3H]-cAMP substrate; read-out: PDE Inhibitory activity (IC5 :μM), PDE isozyme IV
Procedure: as §1, §2

[6] = target: T2, PDE isozyme II (Sus scrofa, UniProt F1SUV3); experiment: Inhibition of PDE (isozyme II); format: biochemical; conditions: pig ventricular muscle, [3H]-cAMP substrate; read-out: PDE Inhibitory activity (IC5 :μM), PDE isozyme II
T2 construct: centrifugation supernatant of the homogenate of pig ventricular muscle; from tissue; host or cells: pig ventricular muscle, supernatant of homogenate, DEAE-cellulose fraction
T2 sequence (F1SUV3 1-945): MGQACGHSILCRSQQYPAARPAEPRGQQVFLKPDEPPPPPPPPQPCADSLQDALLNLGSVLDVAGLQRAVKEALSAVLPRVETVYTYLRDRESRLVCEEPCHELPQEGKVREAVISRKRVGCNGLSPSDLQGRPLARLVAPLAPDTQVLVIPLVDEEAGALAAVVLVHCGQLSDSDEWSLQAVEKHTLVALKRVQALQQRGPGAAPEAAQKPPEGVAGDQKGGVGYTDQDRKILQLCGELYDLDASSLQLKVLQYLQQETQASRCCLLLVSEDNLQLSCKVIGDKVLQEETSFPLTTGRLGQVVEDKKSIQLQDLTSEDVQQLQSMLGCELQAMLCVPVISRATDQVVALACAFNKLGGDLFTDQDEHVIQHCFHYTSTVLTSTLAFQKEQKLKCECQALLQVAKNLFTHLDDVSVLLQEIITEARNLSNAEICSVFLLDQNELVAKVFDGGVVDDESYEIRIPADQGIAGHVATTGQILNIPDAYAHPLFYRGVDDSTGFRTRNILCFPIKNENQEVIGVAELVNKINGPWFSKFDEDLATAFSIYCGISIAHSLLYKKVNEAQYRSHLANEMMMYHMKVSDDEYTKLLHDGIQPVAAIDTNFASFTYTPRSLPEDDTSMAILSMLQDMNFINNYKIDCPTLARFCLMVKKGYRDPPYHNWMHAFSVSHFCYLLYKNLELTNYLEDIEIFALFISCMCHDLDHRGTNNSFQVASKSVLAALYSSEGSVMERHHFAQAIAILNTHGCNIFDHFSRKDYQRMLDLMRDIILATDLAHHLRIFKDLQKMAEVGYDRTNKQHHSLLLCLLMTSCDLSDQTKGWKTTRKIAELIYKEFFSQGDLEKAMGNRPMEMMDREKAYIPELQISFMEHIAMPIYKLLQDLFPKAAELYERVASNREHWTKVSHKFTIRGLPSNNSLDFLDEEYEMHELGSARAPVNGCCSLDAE
Procedure: as §1, §2

[7] = system: endothelin; experiment: Effect against endothelin-induced pressor activity in rats; format: in vivo, rats (male SD); conditions: 10 mg/kg i.v., 10 min after endothelin 1 nmol/kg; blood pressure 20 min after endothelin
Procedure: Effect against endothelin-induced pressor activity in rats
Male SD rats (6 to 8 weeks of age) were anesthetized with sodium pentobarbital (60 mg/kg, i.p.), and a polyethylene catheter was inserted in the left carotid artery, which was connected to a pressure transducer (TP-400T, manufactured by Nihon Koden), and the blood pressure was measured via a polygraph (RM-6000 manufactured by Nihon Koden).
The pressor activity was induced by administering endothelin (1 nmol/kg) dissolved in a solvent, from the femoral vein. With regard to the animals ascertained to have increased blood pressure, a solvent or a medium, in which a drug had been dissolved or suspended, was administered in a dose of 1 ml/kg from the femoral vein of the rats 10 minutes after the endothelin administration, and the pressor activity was observed thereafter. The representative test results of Compound 2 are shown.
The results are shown in Table 14. in the Table, changes in blood pressure 20 minutes after the endothelin administration was compared with the value obtained before the endothelin administration.

[8] = Acute toxicity in mice; format: in vivo, mice (ICR); conditions: mouse, in vivo, po, mice; estimated; read-out: oral lethal dose 50% (LD50)
Procedure: (§5) Acute toxicity of 1,8-naphthyridin-2-one derivative in mice
(§6) ICR mice (6-8 weeks of age, 7 per group) were fasted overnight and used for the experiment. A solvent (0.5% aqueous solution of carboxymethylcellulose) or a medium, in which a drug had been dissolved or suspended, was orally administered to mice in a dose of 0.1 ml/10 g body weight, and life or death of the animals was monitored for 72 hours after the administration. The representative test results of Compound 2 (300 mg/kg p.o.) are shown.

[9] = system: mice; experiment: Acute toxicity in mice; format: in vivo, mice (ICR); conditions: 300 mg/kg p.o., 72 hours
Procedure: as §5, §6

[10] = system: endothelin-induced contraction of extracted pig coronary artery; experiment: Suppression of endothelin-induced contraction in extracted pig coronary artery; conditions: 10 μM
Procedure: Suppression of endothelin-induced contraction in extracted pig coronary artery
Rectangular specimens of pig left anterior descendens coronary artery (endothelial cells removed) were used. The specimens were heated to 37° C. and suspended in a Tyrode's solution (10 ml) aerated with a 95% O2 -5% CO2 mixed gas under the resting tension of 1.5 g, and changes in isometric tension were determined. The specimens were contracted with 10 nM endothelin and when the reaction became stable, a drug dissolved in dimethyl sulfoxide was added to the. Tyrode's solution. The relaxation ratio was calculated relative to the base line before the contraction, which was taken as 100% relaxation. The representative test results of Compound 2 (administration concentration: 10 μM) are shown.

[11] = system: endothelin; experiment: Prevention of lethal effect on mice induced by intravenous administration of endothelin; format: in vivo, mice (male ICR)
Procedure: Prevention of lethal effect on mice induced by intravenous administration of endothelin
Male ICR mice (6-7 weeks of age) were used without anesthetization. A solvent (physiological saline or 0.5% carboxymethylcellulose in physiological saline) or a medium, in which a drug had been dissolved or suspended, was administered in a dose of 50 μl /10 g body weight via the tail vein of the mice. Five minutes later, 5 nmol/kg of endothelin (Peptide Institute) dissolved in the same amount of a solvent was intravenously administered. The mice were monitored for 60 minutes after the endothelin administration and the number of dead animals and the latency (seconds) until death were determined. […] The test results of Compound 2 are representatively shown.

IC50 [1]	IC50 [4]	IC50 [5]	IC50 [6]	SMILES	Suppression of contraction % (HS) ([2]; 10 μM)	Suppression of contraction % (LT) ([3]; 10 μM)	Endothelin-induced pressor activity, Suppression % [7]	LD50 at 72 h [8]	Death (number of animals) ([9]; 7 animals administered)	acute toxicity test result [9]	suppressive action on the endothelin-induced contraction [10]	Suppression % of endothelin-induced contraction ([10]; contracted with 10 nM endothelin, endothelial cells removed)	Prevention of death: suppression of death (%) ([11]; 30 mg/kg i.v., 5 min before endothelin 5 nmol/kg i.v., 60 min monitoring)	Prevention of death: prolongation of latency (%) ([11]; 30 mg/kg i.v., 5 min before endothelin 5 nmol/kg i.v., ** P<0.01 relative to control, Tukey)	suppression of the death caused by endothelin and prolonging action of the latency until death ([11]; i.v.)	Suppression of contraction % (HS) ([2]; 1 μM)	Suppression of contraction % (LT) ([3]; 1 μM)
> 50 µM	> 50 µM	0.4 µM	> 50 µM	Cc1ccccc1-c1cc2cccnc2n(Cc2ccccc2F)c1=O [Compound 1, 1-(2-fluorobenzyl)-3-(2-methylphenyl)-1,8-naphthyridin-2(1H)-one]	100%	88%	–	–	–	–	–	–	–	–	–	–	–
66 µM	80 µM	1.4 µM	18 µM	O=c1c(-c2ccccn2)cc2cccnc2n1CC1CC1 [Compound 3]	–	–	–	–	–	–	–	–	–	–	–	60%	100%
49 µM	44 µM	0.38 µM	> 50 µM	C=CCn1c(=O)c(-c2ccc(OC)cc2)cc2cccnc21 [Compound 4]	100%	100%	–	–	–	–	–	–	–	–	–	–	–
> 50 µM	> 50 µM	0.35 µM	> 50 µM	CC(C)CCn1c(=O)c(-c2ccc(Cl)cc2)cc2cccnc21 [Compound 5]	–	–	–	–	–	–	–	–	–	–	–	–	–

SMILES	IC50 [1]	IC50 [4]	IC50 [5]	IC50 [6]	Suppression of contraction % (HS) ([2]; 10 μM)	Suppression of contraction % (LT) ([3]; 10 μM)	Endothelin-induced pressor activity, Suppression % [7]	LD50 at 72 h [8]	Death (number of animals) ([9]; 7 animals administered)	acute toxicity test result [9]	suppressive action on the endothelin-induced contraction [10]	Suppression % of endothelin-induced contraction ([10]; contracted with 10 nM endothelin, endothelial cells removed)	Prevention of death: suppression of death (%) ([11]; 30 mg/kg i.v., 5 min before endothelin 5 nmol/kg i.v., 60 min monitoring)	Prevention of death: prolongation of latency (%) ([11]; 30 mg/kg i.v., 5 min before endothelin 5 nmol/kg i.v., ** P<0.01 relative to control, Tukey)	suppression of the death caused by endothelin and prolonging action of the latency until death ([11]; i.v.)	Suppression of contraction % (HS) ([2]; 1 μM)	Suppression of contraction % (LT) ([3]; 1 μM)
Cn1c(=O)c(-c2ccccc2)cc2cccnc21 [Compound 2]	29 µM	> 50 µM	1.6 µM	39 µM	93%	–	38.5%	≥ 300 mg/kg	0	tested negative in the acute toxicity test	showed evident suppressive action	74%	52%	305%	showed suppression of the death caused by endothelin and a prolonging action of the latency until death	–	–
